According to US12336995B2, “Combination therapies” (Mirati Therapeutics, Inc., priority 2018, dated 2025):

What was measured:
LU6405 cells (PDX model) = experiment: In vivo PDX model, Compound 478 and Afatinib (Table 4c); conditions: LU6405, Afatinib 12.5 mg/kg, single or combined
Method: (§1) Immunocompromised nude/nude mice were inoculated in the right hind flank with cells or patient derived tumor samples harboring a KRas G12C mutation. […] The first group was administered vehicle only. […] The fourth group was administered the single agent dose of the KRas G12C inhibitor in combination with the single agent dose of the pan ErbB family inhibitor. […] Tumor volumes were measured using a caliper every two-three days and tumor volumes were calculated by the formula: 0.5×(Length×Width)^2.
(§2) Tumor volumes were measured at pre-specified days set forth below.

H2122 cells = experiment: In vivo tumor model, Compound 478 and Afatinib (Table 4a); conditions: for Average Tumor Volumes: H2122, Afatinib 12.5 mg/kg, single or combined
Method: as §1, §2

KYSE-410 cells = experiment: In vivo tumor model, Compound 478 and Afatinib (Table 4b); conditions: KYSE-410, Afatinib 12.5 mg/kg, single or combined
Method: as §1, §2

[1] = Day 11 post implant (treatment start), p.o. daily: Compound 478 100 mg/kg
[2] = Day 14 post implant, p.o. daily from Day 11: Compound 478 100 mg/kg
[3] = Day 18 post implant, p.o. daily from Day 11: Compound 478 100 mg/kg
[4] = Day 21 post implant, p.o. daily from Day 11: Compound 478 100 mg/kg
[5] = Day 25 post implant, p.o. daily from Day 11: Compound 478 100 mg/kg
[6] = Day 28 post implant, p.o. daily from Day 11: Compound 478 100 mg/kg
[7] = Day 32 post implant, p.o. daily from Day 11: Compound 478 100 mg/kg
[8] = Day 34 post implant, p.o. daily from Day 11: Compound 478 100 mg/kg

How did the “Average Tumor Volumes” value (LU6405 cells (PDX model); [1]) turn out when `CN(C)C/C=C/C(=O)Nc1cc2c(Nc3ccc(F)c(Cl)c3)ncnc2cc1OC1CCOC1` (centres unmarked) [Afatinib, (E)-N-(4-((3-chloro-4-fluorophenyl)amino)-7-((tetrahydrofuran-3-yl)oxy)quinazolin-6-yl)-4-(dimethylamino)but-2-enamide, reference compound] was run?
Its value is 257.48 mm^3.

What about the “Average Tumor Volumes” value (LU6405 cells (PDX model); [2]) of the same molecule?
Its value is 371.98 mm^3.

And the “Average Tumor Volumes” value (LU6405 cells (PDX model); [3])?
Its value is 585.54 mm^3.

What about the “Average Tumor Volumes” value (LU6405 cells (PDX model); [4]) of the same molecule?
The value was 775.75 mm^3.

What about the “Average Tumor Volumes” value (LU6405 cells (PDX model); [5]) of the same molecule?
The value was 1056.23 mm^3.

What about the “Average Tumor Volumes” value (LU6405 cells (PDX model); [6]) of the same molecule?
The value was 1197.31 mm^3.

And the “Average Tumor Volumes” value (LU6405 cells (PDX model); [7])?
Its value is 1540.74 mm^3.

And the “Average Tumor Volumes” value (LU6405 cells (PDX model); [8])?
Its value is 1655.49 mm^3.

And the “Average Tumor Volumes” value (H2122 cells; [1])?
The value was 324.86 mm^3.

What about the “Average Tumor Volumes” value (H2122 cells; Day 13 post implant, p.o. daily from Day 11: Compound 478 100 mg/kg) of the same molecule?
Its value is 429.76 mm^3.

What about the “Average Tumor Volumes” value (H2122 cells; Day 15 post implant, p.o. daily from Day 11: Compound 478 100 mg/kg) of the same molecule?
The value was 573.36 mm^3.

What about the “Average Tumor Volumes” value (H2122 cells; [3]) of the same molecule?
Its value is 694.70 mm^3.

And the “Average Tumor Volumes” value (H2122 cells; Day 20 post implant, p.o. daily from Day 11: Compound 478 100 mg/kg)?
Its value is 850.85 mm^3.

What about the “Average Tumor Volumes” value (H2122 cells; Day 22 post implant, p.o. daily from Day 11: Compound 478 100 mg/kg) of the same molecule?
The value was 931.53 mm^3.

And the “Average Tumor Volumes” value (H2122 cells; [5])?
Its value is 1153.42 mm^3.

What about the “Average Tumor Volumes” value (H2122 cells; Day 27 post implant, p.o. daily from Day 11: Compound 478 100 mg/kg) of the same molecule?
Its value is 1307.50 mm^3.

What about the “Average Tumor Volumes” value (H2122 cells; Day 29 post implant, p.o. daily from Day 11: Compound 478 100 mg/kg) of the same molecule?
Its value is 1137.09 mm^3.

And the “Average Tumor Volumes” value (H2122 cells; [7])?
The value was 1403.33 mm^3.

And the “Average Tumor Volumes” value (H2122 cells; [8])?
The value was 1830.13 mm^3.

What about the tumor growth inhibition (H2122 cells; H2122 tumor bearing mice, Day 22 (Treatment Day 10), single agent, Compound 478 100 mg/kg, afatinib 12.5 mg/kg p.o. daily) of the same molecule?
The tumor growth inhibition was 41%.

What about the “Average Tumor Volumes” value (KYSE-410 cells; [1]) of the same molecule?
The value was 311.84 mm^3.

What about the “Average Tumor Volumes” value (KYSE-410 cells; [2]) of the same molecule?
The value was 199.20 mm^3.

And the “Average Tumor Volumes” value (KYSE-410 cells; Day 16 post implant, p.o. daily from Day 11: Compound 478 100 mg/kg)?
The value was 135.30 mm^3.

What about the “Average Tumor Volumes” value (KYSE-410 cells; [3]) of the same molecule?
Its value is 114.40 mm^3.

And the “Average Tumor Volumes” value (KYSE-410 cells; [4])?
Its value is 114.08 mm^3.

And the “Average Tumor Volumes” value (KYSE-410 cells; Day 23 post implant, p.o. daily from Day 11: Compound 478 100 mg/kg)?
Its value is 132.92 mm^3.

What about the “Average Tumor Volumes” value (KYSE-410 cells; [5]) of the same molecule?
Its value is 141.90 mm^3.

What about the “Average Tumor Volumes” value (KYSE-410 cells; [6]) of the same molecule?
Its value is 144.36 mm^3.

What about the “Average Tumor Volumes” value (KYSE-410 cells; Day 30 post implant, p.o. daily from Day 11: Compound 478 100 mg/kg) of the same molecule?
Its value is 166.46 mm^3.

What about the “Average Tumor Volumes” value (KYSE-410 cells; [7]) of the same molecule?
Its value is 163.92 mm^3.

And the “Average Tumor Volumes” value (KYSE-410 cells; Day 35 post implant, p.o. daily from Day 11: Compound 478 100 mg/kg)?
Its value is 181.68 mm^3.

And the “Average Tumor Volumes” value (KYSE-410 cells; Day 37 post implant, p.o. daily from Day 11: Compound 478 100 mg/kg)?
Its value is 198.34 mm^3.
